Where two headings read alike, the source gives them in different places.
Assays:
Jeko-1 = experiment: In vitro tumor cell proliferation, MTT (Example 7); conditions: Homo sapiens, JeKo-1, 72 h
Protocol: (§1) This experiment includes a monotherapy group of Bortezomib, a combined therapy group (Bortezomib/NBP), and a monotherapy group of NBP. Different drug concentration gradients were set for each group.
(§2) Monotherapy group of Bortezomib: (1) MM.1S, Jeko-1, and HT29 cells: Bortezomib was 1.5× serially diluted from an initial concentration of 20 nM to 8 concentrations: 20, 13.33, 8.89, 5.93, 3.95, 2.63, 1.76, and 1.17 nM, respectively; (2) A549 cells: Bortezomib was 2×serially diluted from an initial concentration of 200 nM to 8 concentrations: 200, 100, 50, 25, 12.5, 6.25, 3.13, and 1.56 nM, respectively; and (3) DU145 cells: Bortezomib was 2× serially diluted from an initial concentration of 100 nM to 8 concentrations: 100, 50, 25, 12.5, 6.25, 3.13, 1.56, and 0.78 nM, respectively.
(§3) Monotherapy group of NBP: NBP was 2× serially diluted from an initial concentration of 480 μM to 8 concentrations: 480, 240, 120, 60, 30, 15, 7.5, and 3.75 μM, respectively.
The action time of the drug was 72 h.
(§4) A certain number of conventionally cultured cells in logarithmic growth phase were inoculated in a 96-well plate with 100 μL per well. […] For adherent cells HT29, A549, and DU145, the above drugs were added 24 h after adherence. 3 replicate wells were set for each concentration of each drug, and blank wells (only culture medium was present, and no tumor cells were inoculated) and normal wells (a culture medium inoculated with tumor cells, drug concentration was 0) were set. The drugs functioned for 72 h, then MTT working solution (5 mg/mL) was added at 20 μL per well; after functioning at 37° C. for 4 h, the supernatant was removed, 150 μL of DMSO (analytically pure) was added; the mixture was fully mixed using a microplate oscillator, the plate was wiped clean, and the optical density (OD) at 550 nm was measured using a microplate reader.
(§5) The cell growth inhibition rate was computed using the following equation:
(§6) Inhibition rate (%)=(OD valuenormal well−OD valueadministration well)/(OD valuenormal well−OD valueblank well)×100%
(§7) Based on the inhibition rate of each concentration, the median inhibitory concentration IC50 of the drug was computed using SPSS19.0.

[1] = tested on: paclitaxel (albumin bound) chemotherapy-induced peripheral neuropathy; experiment: Paclitaxel (albumin bound) chemotherapy-induced peripheral neuropathy in rats, butylphthalide intragastric administration (Example 2); assay type: in vivo, SD (Sprague Dawley) rats; conditions: compared with the model group
Protocol: The model group was given vegetable oil at the same frequency and with the same administration method as NBP. The normal group was given normal saline at the same frequency and with the same administration method as ab-PTX, and was given vegetable oil at the same frequency and with the same administration method as NBP. […] (2) Thermal pain threshold: measurements were performed on days −1, 7, and 14. Method: IITC Life Science Electronic Von Frey Anesthesio meter was used and the intensity of the light source was adjusted to obtain a baseline of thermal pain threshold of about 3-6 s. […] The rats were placed in a plastic compartment on a glass plate, to make the planta centers of the rats be exposed to the light source. […] (3) Mechanical stimulus pain threshold: measurements were performed on days 0, 6, and 13. Method: the rats were placed in a plastic compartment on a wire mesh, left to stand still for 15 min, stimulated using a stimulation probe with a diameter of 0.4 mm of the IITC Life Science Electronic Von Frey Anesthesio meter at the planta centers of the rats by gradually increasing the force until reflexive withdrawal of the rats.

[2] = PK of total paclitaxel in plasma, JIMT-1 tumor-bearing mice (Example 4); assay type: in vivo, Nu/Nu mice; conditions: NBP 6, 20, 60 mg/kg bid gavage with ab-PTX 15 mg/kg i.v.
Protocol: Administration period: 28 days. Administration volume: 10 mL/kg.
The administration period was 28 days. The administration volume was 10 mL/kg.

MM.1S = experiment: In vitro tumor cell proliferation, MTT (Example 7); conditions: Homo sapiens, MM1.S, 72 h
Protocol: as §1, §2, §3
The action time of the drug was 72 h.
as §4, §5, §6, §7

[3] = tested on: bortezomib chemotherapy-induced peripheral neuropathy; experiment: Bortezomib chemotherapy-induced peripheral neuropathy in rats (Example 6); assay type: in vivo, SD (Sprague Dawley) rats; conditions: compared with the model group
Protocol: (The modeling and administration time are shown in FIG. 11. The animal grouping, the administration method, and the doses are detailed in Table 14). […] (2) Thermal pain threshold: measurements were performed on days 0, 7, 14, and 21. Method: IITC Life Science Electronic Von Frey Anesthesio meter was used and the intensity of the light source was adjusted to obtain a thermal pain threshold baseline of about 3-6 s. […] The rats were placed in a plastic compartment on a glass plate, to make the planta centers of the rats be exposed to the light source. […] (3) Mechanical Stimulus Pain Threshold: Measurements were Performed on Days −1, 6, 13, and 20. Method: the rats were placed in a plastic compartment on a wire mesh, left to stand still for 15 min, stimulated using a stimulation probe with a diameter of 0.4 mm of the IITC Life Science Electronic Von Frey Anesthesio meter at the planta centers of the rats by gradually increasing the force until reflexive withdrawal of the rats.

[4] = tested on: paclitaxel (albumin bound) chemotherapy-induced peripheral neuropathy; experiment: Paclitaxel (albumin bound) chemotherapy-induced peripheral neuropathy in rats, butylphthalide intraperitoneal injection (Example 1); assay type: in vivo, SD (Sprague Dawley) rats; conditions: NBP 1.5, 5 and 15 mg/kg bid i.p., compared with the model group
Protocol: The normal group was administered with 0.9% normal saline (0.9% INJ NS) at the same frequency. The animal grouping, the administration method, and the doses are detailed in Table 3. Based on the thermal pain threshold baselines and the body weights of the rats, the rats with the baseline values ranging from 3 to 6 s were selected, and were equally grouped in accordance with the above Table 3. […] (2) Thermal pain threshold: IITC Life Science Electronic Von Frey Anesthesio meter was used and the intensity of the light source was adjusted to obtain a baseline of thermal pain threshold of about 3-6 s. […] The rats were placed in a plastic compartment on a glass plate, to make the planta centers of the rats be exposed to the light source.

DU145 = experiment: In vitro tumor cell proliferation, MTT (Example 7); conditions: Homo sapiens, DU-145, 72 h
Protocol: as §1, §2, §3
The action time of the drug was 72 h.
as §4, §5, §6, §7

[5] = PK of Bortezomib and butylphthalide in plasma of MM.1S tumor-bearing mice (Example 8); assay type: in vivo, Nu/Nu mice
Protocol: Monotherapy group of Bortezomib: administered by intraperitoneal injection at 0.5 mg/kg, biw (on days 0, 3, 7, 10, and 15);
Monotherapy group of NBP: administered by transoral gavage at 60 mg/kg, bid (the administration was commenced on day 0), and the second dose of NBP was administered with an interval from the first dose of ≥4 h;
Monotherapy group of Palbociclib: intragastric administration at 70 mg/kg, qd (the administration was commenced on day 0);
Combined therapy group of NBP/Bortezomib: the administration frequency and dose were the same as the frequency and dose of the monotherapy group of NBP and the monotherapy group of Bortezomib, respectively.
Combined therapy group of Bortezomib/Palbociclib: the administration frequency and dose were the same as the frequency and dose of the monotherapy group of Bortezomib and the monotherapy group of Palbociclib, respectively.
Combined therapy group of NBP/Bortezomib/Palbociclib: the administration frequency and dose were the same as the frequency and dose of the monotherapy group of NBP, the monotherapy group of Bortezomib, and the monotherapy group of Palbociclib, respectively.
Before administration of the last dose of Bortezomib (0 h), and 5 min, 15 min, 30 min, 1 h, 2 h, 4 h, 8 h, 24 h after the administration, blood was sampled (as detailed in Table 8) (except that blood was sampled from the mice in the solvent group only at 0 h), anticoagulated with heparin, and centrifuged to separate plasma, which was stored at −80° C. for later use. Bortezomib and butyphthalide in the plasma were determined by protein precipitation-LC/MS/MS.

[6] = read-out: Inhibition rate, First dose
[7] = read-out: Inhibition rate, Mean ± SD
[8] = read-out: Inhibition rate, Second dose
[9] = read-out: Inhibition rate, Third dose
[10] = NBP 60 mg/kg gavage, Bor 0.5 mg/kg, Pal 70 mg/kg, mean ± SD, n=6

CCCCC1OC(=O)c2ccccc21 (stereo not shown) [NBP, 3-n-butylphthalide]
inhibition at 30 µM (Jeko-1; [6]): -7.67% | inhibition at 30 µM (Jeko-1; [7]): -11.5 ± 6.32% | inhibition at 30 µM (Jeko-1; [8]): -18.8% | inhibition at 30 µM (Jeko-1; [9]): -8.11% | body weights of the rats ([1]; NBP 3, 10 and 30 mg/kg bid, duloxetine hydrochloride 15 mg/kg qd, intragastric, throughout administration): not obviously changed | mechanical pain threshold ([1]; day 6, NBP 30 mg/kg bid p.o., P<0.05): significantly decreased | thermal pain threshold ([1]; day 7, NBP 30 mg/kg bid p.o., P<0.05): significantly decreased | mechanical pain threshold ([1]; day 13, NBP 3 mg/kg bid p.o.): had a decreasing trend, but did not have statistical difference | mechanical pain threshold ([1]; day 13, NBP 10 and 30 mg/kg bid, duloxetine hydrochloride 15 mg/kg qd, P<0.05): significantly decreased | thermal pain threshold ([1]; day 14, NBP 3, 10 and 30 mg/kg bid, duloxetine hydrochloride 15 mg/kg qd, P<0.05): significantly decreased | influence of combined butylphthalide on the pharmacokinetic behavior of paclitaxel in the plasma [2]: did not affect | inhibition at 30 µM (MM.1S; [6]): 0.16% | inhibition at 30 µM (MM.1S; [7]): 12.1 ± 11.1% | inhibition at 30 µM (MM.1S; [8]): 14.1% | inhibition at 30 µM (MM.1S; [9]): 22.1% | mechanical stimulus pain threshold (decrease in model rats) ([3]; day 20, NBP 10 and 30 mg/kg bid): significantly reversed | body weights of the rats ([3]; day 21, NBP 3, 10 and 30 mg/kg bid gavage): not obviously changed | thermal pain threshold (decrease in model rats) ([3]; day 21, NBP 3, 10 and 30 mg/kg bid): significantly reversed | body weights of the rats ([4]; D4-16): not significantly changed | thermal pain threshold (increase in model rats) ([4]; D7-13, P<0.05 or P<0.01): significantly decreased | inhibition at 30 µM (DU145; [6]): -2.22% | inhibition at 30 µM (DU145; [7]): 4.03 ± 5.88% | inhibition at 30 µM (DU145; [8]): 9.44% | inhibition at 30 µM (DU145; [9]): 4.87% | influence of NBP on the in vivo pharmacokinetic behaviors of monotherapy of Bortezomib and combined therapy of Bortezomib/Palbociclib ([5]; NBP 60 mg/kg bid): did not have obvious influence | CI of NBP [5, 10]: 2880 ± 1730 mL/min/kg | Vd of NBP [5, 10]: 1445 ± 298 L/kg | AUC(0-t) ([5]; Nu/Nu, mouse, plasma, po, NBP 60 mg/kg gavage, Bor 0.5 mg/kg, Pal 70 mg/kg, mean ± SD, n=6, read-out: AUC0-t of NBP in plasma): 236 ± 100 ng·h/mL | Cmax ([5]; Nu/Nu, mouse, plasma, po, NBP 60 mg/kg gavage, Bor 0.5 mg/kg, Pal 70 mg/kg, mean ± SD, n=6, read-out: Cmax of NBP in plasma): 117 ± 88 ng/mL | MRT last ([5]; Nu/Nu, mouse, plasma, po, NBP 60 mg/kg gavage, Bor 0.5 mg/kg, Pal 70 mg/kg, mean ± SD, n=6, read-out: MRT0-t of NBP): 3.1 ± 0.6 h | half-life ([5]; Nu/Nu, mouse, plasma, po, NBP 60 mg/kg gavage, Bor 0.5 mg/kg, Pal 70 mg/kg, mean ± SD, n=6, read-out: t1/2 of NBP in plasma (converted)): 10.1 ± 9.7 h

From patent US20230144023A1, “USE OF BUTYLPHTHALIDE AND DERIVATIVE THEREOF” (CSPC NBP PHARMACEUTICAL CO., LTD, priority 2020, published 2023)
